Here are results for three molecules from patent publication US10434186B2, “Functionalized linear ligands and complexes thereof” (LUMIPHORE, INC., priority 2014, dated 2019).

The structures appear in SMILES notation. Counter-ions that a name gives are not always drawn.

The conditions of series [1]: Eu(III) complex of the ligand; cited from earlier work.
Series [2] can be described thus: Molar extinction coefficient from absorption spectrum in 0.1 M TRIS buffer. Format: physicochemical. On the procedure:
This corresponds to 1.218×10^−6 moles of ligand in 50 mL and c=2.436×10^−5 M. A=ϵcl, at λmax, A=0.42853 at 327 nm. […] This corresponds to 2.472×10^−6 moles of ligand in 50 mL and c=4.945×10^−5 M. A=ϵcl; at λmax, A=0.96915 at 315 nm.

The conditions of series [3]: in 0.5 M H2SO4; cited from earlier work.

On to `O=C(NCCCN(CCCCN(CCCNC(=O)c1cccc(=O)n1O)C(=O)c1cccc(=O)n1O)C(=O)c1cccc(=O)n1O)c1cccc(=O)n1O` [3,4,3-LI(1,2-HOPO)], for which the “quantum yield of Eu(III) complex” value in series [1] is given as ~20%.

Consider `Cl.NCCOCCNC(=O)C(CCCN(CCCNC(=O)c1cccc(=O)n1O)C(=O)c1cccc(=O)n1O)N(CCCNC(=O)c1cccc(=O)n1O)C(=O)c1cccc(=O)n1O` (centres unmarked) [Compound 2-8], for which the “ϵ280/ϵ327 ratio for protein labelling” value in series [2] (0.1 M TRIS buffer pH 7.4) stood at 3.11. The “extinction coefficient ϵ at 327 nm (λmax)” value in series [2] (0.1 M TRIS buffer pH 7.4, 1 cm cuvette, based on CHN) was ~17,595 M^−1 cm^−1. Moreover, in series [2] (0.1 M TRIS buffer pH 7.4, 280 nm), the “extinction coefficient at 280 nm” value is ~5655 M⁻¹ cm⁻¹.

Turning to `C=C[C@H]1C[N@@]2CC[C@H]1C[C@H]2[C@H](O)c1ccnc2ccc(OC)cc12` [Quinine Sulfate], the “reference quantum yield Φref” value in series [3] is 0.546.
